Laboratory results from patent US20050187264A1, “Phosphodiesterase iv inhibitor containing pyridylacrylamide derivative” (priority 2002, published 2005).

System: Phosphodiesterase IV
Assay: Inhibitory action on phosphodiesterase IV ([3H]cAMP hydrolysis, liquid scintillation)
Type: biochemical
Conditions: test substance 10 μM; enzyme isolated from U-937 cell; cAMP 1 μM substrate; 30 min at 30° C.; duplicate
Method: Phosphodiesterase IV was isolated using U-937 cell as origin (Torphy, T. J. et al., J. Pharmacol. Exp. Ther., 263, 1195-1205 (1992)). Using [^3 H]cAMP and cAMP (1 μM) as substrate/tracer, incubation was performed for 30 min at 30° C. [^3H]5′-AMP was measured by liquid scintillation. Inhibitory activity is represented by the rate of inhibition of a test substance with respect to a control group that is without the test substance, and is calculated by the following formula: Inhibitory activity (%)=100×(control group value−value of group with test substance addition/control group value.
All tests were implemented in duplicate.

| SMILES | Phosphodiesterase IV inhibitory activity (10 μM) [%] |
| --- | --- |
| COc1ccc(CCN(C)C(=O)/C(C#N)=C/c2cccnc2)cc1OC [Compound 2] | 72 |
| COc1ccc(CCN(C)C(=O)/C=C/c2cccnc2)cc1OC [Compound 144] | 47 |
| COc1ccc(CCN(C)C(=O)/C=C/c2cccnc2)cc1OC [Compound 146] | 43 |
| COc1ccc(CCN(C)C(=O)/C=C/c2cccnc2)cc1OC [Compound 143] | 50 |
| COc1ccc(C(=O)CN(C)C(=O)/C=C/c2cccnc2)cc1OC [Compound 155, (E)-N-[2-(3,4-dimethoxyphenyl)-2-oxoethyl]-N-methyl-3-(3-pyridyl)-2-propenamide] | 69 |
| COc1ccc(CCN(C)C(=O)/C=C/c2ccccn2)cc1OC.Cl [Compound 153] | 59 |
| COc1ccc(CCNC(=S)/C=C/c2cccnc2)cc1OC.Cl [Compound 136] | 45 |
| COc1ccc(CCN(C)C(=O)/C=C/c2cccnc2)cc1OC.Cl [Compound 140] | 54 |
| COc1ccc(CCN(C)C(=S)/C=C/c2cccnc2)cc1OC.Cl [Compound 135, (E)-N-(3,4-dimethoxyphenethyl)-N-methyl-3-(3-pyridyl)-2-propenethioamide Hydrochloride] | 53 |
| COc1ccc(CCN(C)C(=O)/C=C/c2cccnc2)cc1OC [Compound 84, (E)-N-(3,4-dimethoxyphenethyl)-N-methyl-3-(3-pyridyl)-2-propenamide] | 49 |

System: not given
Assay: not given
Conditions: not given

| SMILES | melting point [°C] |
| --- | --- |
| COc1ccc(CCN(C)C(=O)/C(C#N)=C/c2cccnc2)cc1OC [Compound 2] | 115 to 120 |
| COC(=O)CN(CCc1ccc(OC)c(OC)c1)C(=O)/C=C/c1cccnc1.Cl | 168 to 170 |

The next lines start with the values.

| melting point [°C] | SMILES |
| --- | --- |
| 182 to 187 | COc1ccc(CCNC(=S)/C=C/c2cccnc2)cc1OC.Cl [Compound 136] |
| 152 to 155 | COCCOCOc1c(OC)cc(CCN(C)C(=O)/C=C/c2cccnc2)cc1OC [Compound 36] |
| 105 to 107 | CCOC(=O)COc1ccc(CNC(=O)/C=C/c2cccnc2)cc1OC [Compound 105] |
